Reference: patent US12077503B2, “Substituted cyclic amides and their use as herbicides” (FMC CORPORATION, priority 2015, dated 2024)
Read-outs that look alike come from different tables or passages of the source.

What was measured:
Experiment in all cases: Test A postemergence
Assay type in all cases: in vivo
corn (Zea mays) = conditions: Zea mays, post-emergence, 240 h; for Corn plant response rating (crop injury, 0 = no effect, 100 = complete kill) at 125 g/ha / plant injury at 125 g/ha: 125 g ai/ha; for Corn plant response rating (crop injury, 0 = no effect, 100 = complete kill) at 125 g/ha: Postemergence, visual injury after approximately 10 d, 0 to 100 scale where 0 is no effect and 100 is complete control; for plant injury at 125 g/ha / Corn plant response rating (crop injury, 0 = no effect, 100 = complete kill) at 500 g/ha / plant injury at 500 g/ha: postemergence; for Corn plant response rating (crop injury, 0 = no effect, 100 = complete kill) at 500 g/ha / plant injury at 500 g/ha: 500 g ai/ha; for Corn plant response rating (crop injury, 0 = no effect, 100 = complete kill) at 500 g/ha: visual injury, 0 to 100 scale (0 no effect, 100 complete control); for plant injury at 500 g/ha: 0 to 100 scale, 0 is no effect, 100 is complete control
In short: (§1)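 Greenhouse, ~10 d after spray; visual injury vs untreated controls, 0 = no effect, 100 = complete control. Preemergence: directed soil spray over planted seeds. Postemergence: plants 2–10 cm, 1–2 leaf stage. Loam/sand blend. Compound in non-phytotoxic solvent with surfactant.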

[1] = tested on: blackgrass (Alopecurus myosuroides); conditions: Alopecurus myosuroides, post-emergence, 240 h; for pest or weed control at 125 g/ha: 125 g ai/ha; for pest or weed control at 500 g/ha: 500 g ai/ha
In short: as §1

[2] = tested on: wheat (Triticum aestivum); conditions: Triticum aestivum, post-emergence, 240 h; for plant injury at 125 g/ha: 125 g ai/ha; for plant injury at 500 g/ha: 500 g ai/ha, 0 to 100 scale, 0 is no effect, 100 is complete control
In short: as §1

[3] = tested on: ryegrass, Italian (Italian ryegrass, Lolium multiflorum); conditions: Lolium multiflorum, post-emergence, 240 h; for pest or weed control at 125 g/ha: 125 g ai/ha; for pest or weed control at 500 g/ha: 500 g ai/ha, 0 to 100 scale, 0 is no effect, 100 is complete control
In short: as §1

[4] = tested on: pigweed (Amaranthus retroflexus); conditions: Amaranthus retroflexus, post-emergence, 240 h; for pest or weed control at 125 g/ha: 125 g ai/ha; for pest or weed control at 500 g/ha: 500 g ai/ha, 0 to 100 scale, 0 is no effect, 100 is complete control
In short: as §1

[5] = tested on: Galium (catchweed bedstraw, Galium aparine); conditions: Galium, post-emergence, 240 h; for pest or weed control at 125 g/ha: 125 g ai/ha; for pest or weed control at 500 g/ha: 500 g ai/ha
In short: as §1

[6] = Postemergence, visual injury after approximately 10 d, 0 to 100 scale where 0 is no effect and 100 is complete control, read-out: Plant response rating, Blackgrass
[7] = Postemergence, visual injury after approximately 10 d, 0 to 100 scale where 0 is no effect and 100 is complete control, read-out: Plant response rating, Wheat
[8] = Postemergence, visual injury after approximately 10 d, 0 to 100 scale where 0 is no effect and 100 is complete control, read-out: Plant response rating, Ryegrass, Italian
[9] = Postemergence, visual injury after approximately 10 d, 0 to 100 scale where 0 is no effect and 100 is complete control, read-out: Plant response rating, Pigweed
[10] = Postemergence, visual injury after approximately 10 d, 0 to 100 scale where 0 is no effect and 100 is complete control, read-out: Plant response rating, Galium
[11] = visual injury on 0 to 100 scale (0 no effect, 100 complete control), approx. 10 d, read-out: Corn plant response rating
[12] = postemergence, visual injury on 0 to 100 scale (0 no effect, 100 complete control), approx. 10 d, read-out: Blackgrass plant response rating
[13] = postemergence, visual injury, 0 to 100 scale (0 no effect, 100 complete control), approx. 10 d, read-out: Plant response rating, Blackgrass
[14] = postemergence, visual injury on 0 to 100 scale (0 no effect, 100 complete control), approx. 10 d, read-out: Wheat plant response rating
[15] = postemergence, visual injury on 0 to 100 scale (0 no effect, 100 complete control), approx. 10 d, read-out: Ryegrass, Italian plant response rating
[16] = postemergence, visual injury on 0 to 100 scale (0 no effect, 100 complete control), approx. 10 d, read-out: Pigweed plant response rating
[17] = postemergence, visual injury on 0 to 100 scale (0 no effect, 100 complete control), approx. 10 d, read-out: Galium plant response rating
[18] = postemergence, visual injury, 0 to 100 scale (0 no effect, 100 complete control), approx. 10 d, read-out: Plant response rating, Galium
[19] = read-out: Corn plant response rating
[20] = postemergence, 0 to 100 scale, 0 is no effect, 100 is complete control, read-out: Blackgrass plant response rating
[21] = postemergence, read-out: Wheat plant response rating
[22] = postemergence, read-out: Ryegrass, Italian plant response rating
[23] = postemergence, read-out: Pigweed plant response rating
[24] = postemergence, 0 to 100 scale, 0 is no effect, 100 is complete control, read-out: Galium plant response rating
[25] = postemergence, visual injury vs untreated controls after approx. 10 d, 0 = no effect, 100 = complete control, read-out: Wheat plant response rating (0 to 100 scale)
[26] = postemergence, visual injury vs untreated controls after approx. 10 d, 0 = no effect, 100 = complete control, read-out: Ryegrass, Italian plant response rating (0 to 100 scale)
[27] = postemergence, visual injury vs untreated controls after approx. 10 d, 0 = no effect, 100 = complete control, read-out: Pigweed plant response rating (0 to 100 scale)
[28] = visual injury rating after approximately 10 d, read-out: Corn plant response rating (0 to 100 scale, 0 no effect, 100 complete control)
[29] = postemergence, visual injury rating after approximately 10 d, read-out: Blackgrass plant response rating (0 to 100 scale, 0 no effect, 100 complete control)
[30] = postemergence, visual injury rating after approximately 10 d, read-out: Wheat plant response rating (0 to 100 scale, 0 no effect, 100 complete control)
[31] = postemergence, visual injury rating after approximately 10 d, read-out: Ryegrass, Italian plant response rating (0 to 100 scale, 0 no effect, 100 complete control)
[32] = postemergence, visual injury rating after approximately 10 d, read-out: Pigweed plant response rating (0 to 100 scale, 0 no effect, 100 complete control)
[33] = postemergence, visual injury rating after approximately 10 d, read-out: Galium plant response rating (0 to 100 scale, 0 no effect, 100 complete control)

| Structure (SMILES) | plant injury at 125 g/ha (corn (Zea mays); [11]) | pest or weed control at 125 g/ha [1, 12] | plant injury at 125 g/ha [2, 14] | pest or weed control at 125 g/ha [3, 15] | pest or weed control at 125 g/ha [4, 16] | pest or weed control at 125 g/ha [5, 17] | plant injury at 125 g/ha (corn (Zea mays); [28]) | plant injury at 125 g/ha [2, 30] | pest or weed control at 125 g/ha [3, 31] | pest or weed control at 125 g/ha [4, 32] | pest or weed control at 125 g/ha [5, 33] | further results |
| --- | --- | --- | --- | --- | --- | --- | --- | --- | --- | --- | --- | --- |
| Cc1ccc([C@H]2CNC(=S)[C@@H]2C(=O)Nc2ccccc2F)cc1 (racemic) [Compound 945] |  |  |  |  |  |  |  |  |  |  |  | Corn plant response rating (crop injury, 0 = no effect, 100 = complete kill) at 125 g/ha (corn (Zea mays)): 0%; pest or weed control at 125 g/ha [1, 6]: 0%; plant injury at 125 g/ha [2, 7]: 0%; pest or weed control at 125 g/ha [3, 8]: 0%; pest or weed control at 125 g/ha [4, 9]: 0%; pest or weed control at 125 g/ha [5, 10]: 20% |
| Cc1ccc([C@H]2CNC(=S)[C@@H]2C(=O)Nc2cccc(F)c2F)cc1 (racemic) [Compound 946] |  |  |  |  |  |  |  |  |  |  |  | Corn plant response rating (crop injury, 0 = no effect, 100 = complete kill) at 125 g/ha (corn (Zea mays)): 0%; pest or weed control at 125 g/ha [1, 6]: 0%; plant injury at 125 g/ha [2, 7]: 0%; pest or weed control at 125 g/ha [3, 8]: 0%; pest or weed control at 125 g/ha [4, 9]: 0%; pest or weed control at 125 g/ha [5, 10]: 0% |
| O=C(Nc1cccc(F)c1F)[C@H]1C(=S)NC[C@@H]1c1ccc(C(F)(F)F)cc1 (racemic) [Compound 1048] | 20% | 20% | 20% | 30% | 30% | 0% |  |  |  |  |  | Corn plant response rating (crop injury, 0 = no effect, 100 = complete kill) at 500 g/ha (corn (Zea mays); approx. 10 d): 40%; pest or weed control at 500 g/ha [1, 13]: 30%; pest or weed control at 500 g/ha [5, 18]: 60% |
| O=C(Nc1ccccc1C(F)(F)F)[C@H]1C(=S)NC[C@@H]1c1ccc(C(F)(F)F)cc1 (racemic) [Compound 1049] | 0% | 0% | 0% | 0% | 10% | 0% |  |  |  |  |  | Corn plant response rating (crop injury, 0 = no effect, 100 = complete kill) at 500 g/ha (corn (Zea mays); approx. 10 d): 0%; pest or weed control at 500 g/ha [1, 13]: 0%; pest or weed control at 500 g/ha [5, 18]: 40% |
| Cc1ccc([C@H]2CN(C)C(=O)[C@]2(O)C(=O)Nc2cccc(F)c2F)cc1 (racemic) [Compound 1059] | 0% | 0% | 0% | 0% | 0% | 0% |  |  |  |  |  | plant injury at 500 g/ha (corn (Zea mays); [19]): 20%; pest or weed control at 500 g/ha [1, 20]: 0%; plant injury at 500 g/ha [2, 21]: 0%; pest or weed control at 500 g/ha [3, 22]: 20%; pest or weed control at 500 g/ha [4, 23]: 0%; pest or weed control at 500 g/ha [5, 24]: 0% |
| CN1C[C@H](c2ccc(C(F)(F)F)cc2)[C@](F)(C(=O)Nc2cccc(F)c2F)C1=O (racemic) [Compound 1152] | 0% | 0% |  |  |  | 0% |  |  |  |  |  | plant injury at 500 g/ha (corn (Zea mays); [19]): 0%; pest or weed control at 500 g/ha [1, 20]: 0%; plant injury at 125 g/ha [2, 25]: 0%; plant injury at 500 g/ha [2, 21]: 0%; pest or weed control at 125 g/ha [3, 26]: 0%; pest or weed control at 500 g/ha [3, 22]: 0%; pest or weed control at 125 g/ha [4, 27]: 0%; pest or weed control at 500 g/ha [4, 23]: 0%; pest or weed control at 500 g/ha [5, 24]: 20% |
| CN1C[C@H](c2ccc(F)c(F)c2)[C@@H](C(=S)Nc2ccccc2F)C1=O (racemic) [Compound 1153] | 0% | 0% |  |  |  | 30% |  |  |  |  |  | plant injury at 500 g/ha (corn (Zea mays); [19]): 0%; pest or weed control at 500 g/ha [1, 20]: 30%; plant injury at 125 g/ha [2, 25]: 0%; plant injury at 500 g/ha [2, 21]: 0%; pest or weed control at 125 g/ha [3, 26]: 0%; pest or weed control at 500 g/ha [3, 22]: 0%; pest or weed control at 125 g/ha [4, 27]: 0%; pest or weed control at 500 g/ha [4, 23]: 0%; pest or weed control at 500 g/ha [5, 24]: 40% |
| CN1C[C@H](c2cccc(C3CC3)c2)[C@@H](C(=O)Nc2cccc(F)c2F)C1=O [Compound 816] |  |  |  |  |  |  | 90% | 30% | 60% | 0% | 60% | pest or weed control at 125 g/ha [1, 29]: 60% |
| CN1C[C@H](c2cccc(F)c2)[C@@H](C(=O)Nc2ccccc2S(C)(=O)=O)C1=O [Compound 824] |  |  |  |  |  |  | 0% | 0% | 30% | 0% | 40% | pest or weed control at 125 g/ha [1, 29]: 20% |
| O=C1NC[C@H](c2cccc(C(F)(F)F)c2)[C@H]1C(=O)Nc1cccc2c1OC(F)(F)O2 [Compound 827] |  |  |  |  |  |  | 20% | 20% | 0% | 0% | 40% | pest or weed control at 125 g/ha [1, 29]: 40% |
| O=C1NC[C@H](c2cc(F)c(C(F)(F)F)c(F)c2)[C@H]1C(=O)Nc1ccccc1F [Compound 837] |  |  |  |  |  |  | 60% | 0% | 50% | 30% | 50% |  |
| O=C1NC[C@H](c2cc(F)c(C(F)(F)F)c(F)c2)[C@H]1C(=O)Nc1cccc(F)c1F [Compound 838] |  |  |  |  |  |  | 70% | 30% | 30% | 80% | 50% |  |
| Cc1cc([C@H]2CNC(=O)[C@@H]2C(=O)Nc2ccccc2Cl)ccc1C(F)(F)F [Compound 1044] | 0% |  | 0% | 0% | 30% | 40% |  |  |  |  |  | Corn plant response rating (crop injury, 0 = no effect, 100 = complete kill) at 500 g/ha (corn (Zea mays); approx. 10 d): 50%; pest or weed control at 500 g/ha [5, 18]: 60% |
